Data from paper PMC7211037 (Journal of bone and mineral research : the official journal …, 2016).

Experiments:
CaSR [1] = molecular target: T1, CaSR (Homo sapiens, UniProt P41180); assay: Intracellular calcium mobilization assay in HEK-CaSR cells; format: cell-based; conditions: for Maximal response of Ca^2+ (intracellular Ca^2+): normalized to 7.49 mM Ca^2+ + vehicle in pcDNA3.1 cells
T1 sequence (P41180 20-536 limits assumed): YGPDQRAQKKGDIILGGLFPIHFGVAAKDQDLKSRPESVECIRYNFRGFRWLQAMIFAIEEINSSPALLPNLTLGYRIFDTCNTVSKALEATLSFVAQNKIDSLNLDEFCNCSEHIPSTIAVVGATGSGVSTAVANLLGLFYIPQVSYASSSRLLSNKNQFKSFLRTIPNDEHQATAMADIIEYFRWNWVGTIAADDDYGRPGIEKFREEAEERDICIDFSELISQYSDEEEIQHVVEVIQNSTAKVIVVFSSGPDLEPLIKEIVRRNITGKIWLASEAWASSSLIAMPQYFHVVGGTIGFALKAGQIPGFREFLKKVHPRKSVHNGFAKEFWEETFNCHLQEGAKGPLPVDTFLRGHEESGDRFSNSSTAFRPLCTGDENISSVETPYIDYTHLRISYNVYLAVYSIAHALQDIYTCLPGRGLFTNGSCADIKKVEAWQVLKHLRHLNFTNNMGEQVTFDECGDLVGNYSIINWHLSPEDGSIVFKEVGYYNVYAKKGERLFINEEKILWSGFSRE

CaSR [2] = molecular target: T1, CaSR; assay: cAMP accumulation assay in HEK-CaSR cells; format: cell-based; conditions: 3 mM Ca^2+; GPR64ΔNTF-transfected HEK-CaSR cells (Fig. 7C)
[3] = system: human parathyroid adenoma cells; assay: PTH secretion from freshly isolated parathyroid adenoma cells; format: cell-based; conditions: increasing concentrations of Ca^2+, 30 min at 37°C; normalized to vehicle in 0.5 mM Ca^2+; representative of five independent experiments
CaSR [4] = molecular target: T1, CaSR; conditions: patients; cited from earlier work
[5] = full-length GPR64-transfected HEK-CaSR cells, vehicle, mean ± SE

| Hill slope of Ca^2+ (intracellular Ca^2+) (CaSR [1]; [5]) | pEC50 of Ca^2+ (intracellular Ca^2+) (CaSR [1]; [5]) | Maximal response of Ca^2+ (intracellular Ca^2+) (CaSR [1]; [5]) [%] | Maximal response of Ca^2+ (intracellular Ca^2+) (CaSR [1]; pcDNA3.1-transfected HEK-CaSR cells, vehicle, mean ± SE) [%] | Structure (SMILES) | Intracellular Ca^2+ levels (in words) (CaSR [1]; vehicle-treated pcDNA3.1-transfected HEK-CaSR cells) | cAMP level with Ca^2+ (in words) (CaSR [2]) | PTH secretion (in words) [3] | Serum Ca^2+ normalization (in words) (CaSR [4]) |
| --- | --- | --- | --- | --- | --- | --- | --- | --- |
| 2.915 ± 0.159 | 3.566 ± 0.010 | 101.70 ± 0.762 | 101.5 ± 1.177 | [Ca+2].[Cl-].[Cl-] [Ca^2+, calcium chloride] | elevated the intracellular Ca^2+ levels in a concentration-dependent manner | reduced this effect, the cAMP level was still higher than that of cells transfected with empty vector in normocalcemic conditions | suppressed PTH secretion in a dose-dependent manner |  |
|  |  |  |  | C[C@@H](NCCCc1cccc(C(F)(F)F)c1)c1cccc2ccccc12 [cinacalcet] |  |  |  | normalize the serum Ca^2+ in a significant percentage of patients |
